Measured values as given in patent publication US8088827B2, “Use of irbesartan for the preparation of medicinal products that are useful for treating pulmonary hypertension” (Sanofi-Aventis, priority 2001, dated 2012).

Experiments:
[1] = test system: pulmonary hypertension induced by injection of monocrotaline in rats; assay: Survival of rats with monocrotaline-induced pulmonary hypertension; type: in vivo, Male Sprague-Dawley rats
Experimental: Male Sprague-Dawley rats weighing about 300 g received a subcutaneous injection of monocrotaline (MCT) at a dose of 80 mg/kg.
The treatment with irbesartan was started either 21 days or 14 days after injection of monocrotaline. Irbesartan was incorporated into the food in powder form. The control animals received food alone.
Throughout the study, the animals were examined daily.
In a first study, irbesartan was administered alone at a dose of 50 mg/kg. In a second study, irbesartan was administered alone at a dose of 30 mg/kg and in combination with hydrochlorothiazide (HCTZ): irbesartan: 30 mg/kg and HCTZ: 10 mg/kg.

[2] = test system: pulmonary hypertension induced with monocrotaline; conditions: reported by L. Cassis et al. and R. Kreutz et al.; cited from earlier work
[3] = Study 2, treatment started on the 14th day post-MCT, irbesartan 30 mg/kg, HCTZ 10 mg/kg, alone or in combination
[4] = Study 1, irbesartan 50 mg/kg in food, treatment started on the 14th day after MCT 80 mg/kg s.c.
[5] = Study 1, irbesartan 50 mg/kg in food, treatment started on the 21st day after MCT 80 mg/kg s.c.

NS(=O)(=O)c1cc2c(cc1Cl)NCNS2(=O)=O [HCTZ, hydrochlorothiazide]
Survival to the 50th day [1, 3]: 25% | Survival to the end of the study (85th day) [1, 3]: 4.2%

CCCCC1=NC2(CCCC2)C(=O)N1Cc1ccc(-c2ccccc2-c2nnn[nH]2)cc1 [Irbesartan]
Survival time of the MCT-treated rats ([1]; 50 mg/kg/day, either from the 21st day or from the 14th day post-MCT): significantly increased the survival time | Survival to the 25th day [1, 4]: 100% (12/12) | Survival to the 50th day [1, 4]: 83% (10/12) | Survival to the end of the study (100th day) [1, 4]: 50% (6/12) | Survival to the end of the study (100th day) ([1]; Study 1, irbesartan 50 mg/kg in food, treatment started on the 14th day after MCT 80 mg/kg s.c., listed as irbesartan): 50% | Survival to the 25th day [1, 5]: 100% (18/18) | Survival to the 50th day [1, 5]: 72% (13/18) | Survival to the end of the study (57th day) [1, 5]: 61% (11/18) | Survival to the end of the study (57th day) ([1]; Study 1, irbesartan 50 mg/kg in food, treatment started on the 21st day after MCT 80 mg/kg s.c., listed as irbesartan): 61% | Overall survival time estimated ([1]; Study 1, irbesartan 50 mg/kg, treatment started on the 14th day post-MCT, control group 46 days): > 93 days | Median estimated survival time ([1]; Study 2, treatment started on the 14th day post-MCT, irbesartan 30 mg/kg alone or with HCTZ 10 mg/kg): 46 days | Survival to the 50th day [1, 3]: 47.8% | Survival to the end of the study (85th day) [1, 3]: 0%

CCCCc1nc(Cl)c(CO)n1Cc1ccc(-c2ccccc2-c2nn[nH]n2)cc1 [losartan]
Effect in the monocrotaline pulmonary hypertension model [2]: no effect
